From article PMC9780108, “An intrinsically disordered antimicrobial peptide dendrimer from stereorandomized virtual screening” (Cell Reports. Physical Science, 2022)
≈ marks a conversion by molar mass, not a printed value. Like-named read-outs stand apart in the source and are kept apart here. Residues, ends and D or L forms follow the SMILES beside them.

How the values were obtained:
HEK293 cell line = format: cell-based
Outline: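 HEK293 cells seeded at 2 × 10³/well, incubated 48 h at 37 °C with serially diluted compounds (stock 2 mg/mL) in DMEM with 10% FBS. AlamarBlue added at 10% final for 3–5 h; fluorescence ex 560/em 590 nm, normalized to untreated cells.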

P. aeruginosa PAO1 [1] = test system: P. aeruginosa PAO1
[2] = test system: S aureus COL (methicillin-resistant Staphylococcus aureus)
P. aeruginosa PAO1 [3] = test: DiSC3(5) inner membrane depolarization assay; format: cell-based, Pseudomonas aeruginosa; conditions: PAO1 in HEPES buffer pH 7.4, 2 μM DiSC3(5), up to 64 μg/mL, read within 5 min
Procedure: page 29: 11. DiSC3(5) Membrane Depolarization Assay A single colony of Pseudomonas aeruginosa PAO1 was grown overnight with shaking (150 rpm) in LB-broth (5 mL) at 37 °C. 100 μL of the overnight culture was regrown in 10 mL LB- broth with shaking (200 rpm) to the exponential phase OD 600 = 1 (10^9 CFU/mL). Bacteria were washed once with HEPES buffer (5 mM HEPES, 5 mM glucose, pH 7.4) and diluted to OD 600 = 0.4. Stock solution of 10 mM of DiSC3(5) was prepared in DMSO. Stock solutions of 1 mg/mL of the compounds were prepared in sterilized milli-Q water and diluted to the beginning concentration of 128 μg/mL in 200 μL HEPES buffer containing […] the fluorescent probe DiSC3(5) 4 μM. The diluted samples were added to the first well of 96-well plates (black wells, flat bottom, BRAND® GmbH Wertheim, Germany) and diluted serially by 1/2. 100 μL of the bacterial suspension in HEPES buffer (without DiSC3(5)) were added to each well. In this case, the final OD of bacteria was 0.2, the final concentration of peptide in the first column is 64 μg/mL and DiSC3(5) 2 μM. The control wells are buffer containing DiSC3(5) and bacterial suspension containing DiSC3(5) in HEPES buffer. The plate was measured with a Tecan instrument Infinite M1000 within 5 min. The plate was enabled to shake for 5 sec before measurement. […]

P. aeruginosa PAO1 [4] = test: PI cell permeabilization assay (flow cytometry); format: cell-based, Pseudomonas aeruginosa; conditions: PAO1 (OD600 = 1) incubated 20 min at 37°C, PI 5 µg/mL
Procedure: page 31: 12. Cell Membrane Permeability Assay Propidium iodide (PI) was used as the fluorescent dye to evaluate integrity of bacterial membranes. A single colony of Pseudomonas aeruginosa PAO1 was grown overnight with shaking (150 rpm) in LB-broth (5 mL) at 37 °C. 100 μL of the overnight culture was regrown in 10 mL LB-broth to the exponential phase OD600 1 (10^9 CFU/mL). Bacteria was washed with MH and then re-suspended to a working concentration of OD600 = 1. AMPDs and polymyxin B (stock solution 1 mg/mL) were added at different final concentrations ( 16, 32 and 64 μg/mL). Samples were incubated with shaking (150 rpm) at 37°C for 20 minutes before samples were centrifuged at 14 000 rpm for 3 min. Bacteria sample was washed twice with PBS and stained with PI 5 µg/mL in PBS with shaking (150 rpm) at 37°C for 20 minutes. Bacteria sample was washed 5 times with PBS and the fluorescence intensity of bacteria suspensions was observed and recorded on a ImageStream ® X Mark II Imaging Flow Cytometer with a 488 nm laser , bacteria cells wi th fluorescent intensity higher than 2 × 104 is defined as PI positive cells. Percentage of PI positive cells was calculated by IDEA S workstation . S30

human red blood cells = test: Hemolysis assay (MHC); conditions: Table 1; human red blood cells in PBS (pH 7.4), 4 h, visual inspection; two independent experiments in duplicate
[5] = MH medium pH 7.4, 16–20 h at 37°C, two independent experiments in duplicate
[6] = Table 1, broth microdilution, Müller-Hinton medium pH 7.4, 16–20 h at 37°C, two independent experiments in duplicate
[7] = broth microdilution, Müller-Hinton medium pH 5.0, 16–20 h at 37°C, two independent experiments in duplicate
[8] = broth microdilution, Müller-Hinton medium pH 8.0, 16–20 h at 37°C, two independent experiments in duplicate

## CC(C)C[C@H](NC(=O)[C@H](CCCCN)NC(=O)[C@H](CCCCN)NC(=O)[C@H](CCCCNC(=O)[C@H](CC(C)C)NC(=O)[C@H](CC(C)C)NC(=O)[C@H](CCCCN)NC(=O)[C@H](CCCCNC(=O)[C@H](CC(C)C)NC(=O)[C@H](CCCCN)NC(=O)[C@H](CCCCNC(=O)[C@H](CC(C)C)NC(=O)[C@@H](N)CCCCN)NC(=O)[C@H](CC(C)C)NC(=O)[C@@H](N)CCCCN)NC(=O)[C@H](CC(C)C)NC(=O)[C@H](CCCCN)NC(=O)[C@H](CCCCNC(=O)[C@H](CC(C)C)NC(=O)[C@@H](N)CCCCN)NC(=O)[C@H](CC(C)C)NC(=O)[C@@H](N)CCCCN)NC(=O)[C@H](CC(C)C)NC(=O)[C@H](CC(C)C)NC(=O)[C@H](CCCCN)NC(=O)[C@H](CCCCNC(=O)[C@H](CC(C)C)NC(=O)[C@H](CCCCN)NC(=O)[C@H](CCCCNC(=O)[C@H](CC(C)C)NC(=O)[C@@H](N)CCCCN)NC(=O)[C@H](CC(C)C)NC(=O)[C@@H](N)CCCCN)NC(=O)[C@H](CC(C)C)NC(=O)[C@H](CCCCN)NC(=O)[C@H](CCCCNC(=O)[C@H](CC(C)C)NC(=O)[C@@H](N)CCCCN)NC(=O)[C@H](CC(C)C)NC(=O)[C@@H](N)CCCCN)C(N)=O [L-T7, reference compound] (HELM PEPTIDE1{K.L.K.K.L.K.K.L.L.K.K.K.L.[am]}|PEPTIDE2{K.L}|PEPTIDE3{K.L.K.K.L.K.K.L.L}|PEPTIDE4{K.L}|PEPTIDE5{K.L.K.K.L}|PEPTIDE6{K.L}|PEPTIDE7{K.L.K.K.L}|PEPTIDE8{K.L}$PEPTIDE1,PEPTIDE2,3:R3-2:R2|PEPTIDE3,PEPTIDE4,3:R3-2:R2|PEPTIDE5,PEPTIDE6,3:R3-2:R2|PEPTIDE7,PEPTIDE8,3:R3-2:R2|PEPTIDE1,PEPTIDE7,6:R3-5:R2|PEPTIDE1,PEPTIDE3,10:R3-9:R2|PEPTIDE3,PEPTIDE5,6:R3-5:R2$$$V2.0)
P. aeruginosa ZEM9A; ZEM9A, pH 7.4
  MIC, P. aeruginosa ZEM9A: 8 µg/mL (≈ 1.64 µM)
P. aeruginosa ZEM-1A; ZEM-1A, pH 7.4
  MIC, P. aeruginosa ZEM-1A: 4 µg/mL (≈ 0.818 µM)
B. cenocepacia; pH 7.4
  MIC, B. cenocepacia: >64 µg/mL
P. aeruginosa PA14; PA14, pH 7.4
  MIC, P. aeruginosa PA14: 8 µg/mL (≈ 1.64 µM)
HEK293 cell line; 48 h
  IC50 HEK293: 70 ± 6 µg/mL (≈ 14.3 µM)
K. pneumoniae OXA-48; OXA-48, pH 7.4
  MIC, K. pneumoniae OXA-48: 16 µg/mL (≈ 3.27 µM)
S. maltophilia; pH 7.4
  MIC, S. maltophilia: 4 µg/mL (≈ 0.818 µM)
P. aeruginosa PAO1 [1]; PAO1, pH 5
  MIC at pH 5.0, P. aeruginosa PAO1: 16 μg/mL
P. aeruginosa PAO1 [1]; PAO1, pH 7.4
  MIC at pH 7.4, P. aeruginosa PAO1: 8 μg/mL
P. aeruginosa PAO1 [1]; PAO1, pH 8
  MIC at pH 8.0, P. aeruginosa PAO1: 2–4 μg/mL
E. cloacae; pH 7.4
  MIC, E. cloacae: 8 µg/mL (≈ 1.64 µM)
[2]; COL (methicillin-resistant, pH 5)
  MIC at pH 5.0, S aureus COL: > 64 μg/mL
[2]; COL (methicillin-resistant, pH 7.4)
  MIC at pH 7.4, S aureus COL: > 64 μg/mL
[2]; COL (methicillin-resistant, pH 8)
  MIC at pH 8.0, S aureus COL: 4 μg/mL
S. aureus Newman; Newman, pH 7.4
  MIC, S. aureus Newman: >64 µg/mL
E. coli W3110; W3110, pH 5
  MIC at pH 5.0, E. coli W3110: 16 μg/mL
E. coli W3110; W3110, pH 7.4
  MIC at pH 7.4, E. coli W3110: 4 μg/mL
E. coli W3110; W3110, pH 8
  MIC at pH 8.0, E. coli W3110: 2 μg/mL
A. baumannii ATCC 19606; ATCC 19606, pH 5
  MIC at pH 5.0, A. baumannii ATCC 19606: 16 μg/mL
A. baumannii ATCC 19606; ATCC 19606, pH 7.4
  MIC at pH 7.4, A. baumannii ATCC 19606: 8 μg/mL
A. baumannii ATCC 19606; ATCC 19606, pH 8
  MIC at pH 8.0, A. baumannii ATCC 19606: 2–4 μg/mL
K. pneumoniae NCTC 418; NCTC 418, pH 5
  MIC at pH 5.0, K. pneumoniae NCTC 418: > 64 μg/mL
K. pneumoniae NCTC 418; NCTC 418, pH 7.4
  MIC at pH 7.4, K. pneumoniae NCTC 418: 32 μg/mL
K. pneumoniae NCTC 418; NCTC 418, pH 8
  MIC at pH 8.0, K. pneumoniae NCTC 418: 8 μg/mL

## PMB nonapeptide [PMBN]
P. aeruginosa PAO1 [3]
  Inner membrane depolarization (DiSC3(5) fluorescence), words: no effect on inner membranes
P. aeruginosa PAO1 [4]; 16 μg/mL
  Cell permeabilization (PI), percentage of PI-positive cells: 40%
P. aeruginosa PAO1 [4]; 32 μg/mL
  Cell permeabilization (PI), percentage of PI-positive cells: 38%
P. aeruginosa PAO1 [4]; 64 μg/mL
  Cell permeabilization (PI), percentage of PI-positive cells: 37%

## polymyxin B [PMB, reference compound]
P. aeruginosa ZEM9A; clinical isolate, MH medium pH 7.4, 16–20 h at 37°C, two independent experiments in duplicate
  MIC, P. aeruginosa ZEM9A: 64 µg/mL
P. aeruginosa ZEM-1A; MDR clinical isolate, MH medium pH 7.4, 16–20 h at 37°C, two independent experiments in duplicate
  MIC, P. aeruginosa ZEM-1A: 0.5 µg/mL
B. cenocepacia; [5]
  MIC, B. cenocepacia: >64 µg/mL
P. aeruginosa PA14; [5]
  MIC, P. aeruginosa PA14: 0.5 µg/mL
HEK293 cell line; HEK293 cell line, 48 h at 37°C, DMEM 10% FBS, AlamarBlue, mean ± SD, three independent experiments in triplicates
  IC50 HEK293: 346 ± 20 µg/mL
K. pneumoniae OXA-48; carbapenem-resistant strain, MH medium pH 7.4, 16–20 h at 37°C, two independent experiments in duplicate
  MIC, K. pneumoniae OXA-48: 1 µg/mL
S. maltophilia; [5]
  MIC, S. maltophilia: 4 µg/mL
P. aeruginosa PAO1 [1]; [6]
  MIC at pH 7.4, P. aeruginosa PAO1: 0.5 μg/mL
P. aeruginosa PAO1 [1]; [7]
  MIC at pH 5.0, P. aeruginosa PAO1: 0.03 μg/mL
P. aeruginosa PAO1 [1]; [8]
  MIC at pH 8.0, P. aeruginosa PAO1: 0.5 μg/mL
P. aeruginosa PAO1 [3]
  Inner membrane depolarization (DiSC3(5) fluorescence), words: did not depolarize the inner membrane
E. cloacae; [5]
  MIC, E. cloacae: 0.5 µg/mL
[2]; [7]
  MIC at pH 5.0, S aureus COL: > 64 μg/mL
[2]; broth microdilution, Müller-Hinton medium pH 7.4, 16–20 h at 37°C, two independent experiments in duplicate
  MIC at pH 7.4, S aureus COL: > 64 μg/mL
[2]; [8]
  MIC at pH 8.0, S aureus COL: 4 μg/mL
S. aureus Newman; [5]
  MIC, S. aureus Newman: >64 µg/mL
P. aeruginosa PAO1 [4]; 16 μg/mL
  Cell permeabilization (PI), percentage of PI-positive cells: 96%
P. aeruginosa PAO1 [4]; 32 μg/mL
  Cell permeabilization (PI), percentage of PI-positive cells: 94%
P. aeruginosa PAO1 [4]; 64 μg/mL
  Cell permeabilization (PI), percentage of PI-positive cells: 96%
E. coli W3110; [6]
  MIC at pH 7.4, E. coli W3110: 0.25 μg/mL
E. coli W3110; [7]
  MIC at pH 5.0, E. coli W3110: 0.02 μg/mL
E. coli W3110; [8]
  MIC at pH 8.0, E. coli W3110: 0.13 μg/mL
A. baumannii ATCC 19606; [6]
  MIC at pH 7.4, A. baumannii ATCC 19606: 0.25 μg/mL
A. baumannii ATCC 19606; [7]
  MIC at pH 5.0, A. baumannii ATCC 19606: 1 μg/mL
A. baumannii ATCC 19606; [8]
  MIC at pH 8.0, A. baumannii ATCC 19606: 0.25 μg/mL
K. pneumoniae NCTC 418; [6]
  MIC at pH 7.4, K. pneumoniae NCTC 418: 0.25 μg/mL
K. pneumoniae NCTC 418; [7]
  MIC at pH 5.0, K. pneumoniae NCTC 418: 8 μg/mL
K. pneumoniae NCTC 418; [8]
  MIC at pH 8.0, K. pneumoniae NCTC 418: 0.25 μg/mL
Human red blood cells
  MHC (minimum hemolytic concentration): >2,000 μg/mL
